The values that follow come from PMC4159591, “Crystal structure of an HD‐GYP domain cyclic‐di‐GMP phosphodiesterase reveals an enzyme with a novel trinuclear catalytic iron centre” (Molecular Microbiology, 2013).

Experiment [1] addresses T1, PmGH (Persephonella marina, UniProt C0QQ26, C41A/C197A/D305A).
T1 construct: gene PERMA_0986; GAF + HD-GYP domains; synthetic gene in pET47b, E. coli BL21(DE3); N-terminal His6 tag cut with HRV 3C; homodimer; tri-iron centre
Kind of experiment: HPLC phosphodiesterase assay. Type of experiment: biochemical. The note with it: 100 uM c-di-GMP, pH 7.6, 10 mM MgCl2, 10 mM MnCl2, 0.5 mM EDTA, 37 C.

Experiment [2] concerns the target T2, PmGH (Persephonella marina, UniProt C0QQ26, C41A/E185A/C197A).
T2 construct: gene PERMA_0986; GAF + HD-GYP domains; synthetic gene in pET47b, E. coli BL21(DE3); N-terminal His6 tag cut with HRV 3C; homodimer; tri-iron centre
Kind of experiment: HPLC phosphodiesterase assay. Type of experiment: biochemical. As to conditions: 100 uM c-di-GMP, pH 7.6, 10 mM MgCl2, 10 mM MnCl2, 0.5 mM EDTA, 37 C.

The target in experiment [3] is T3, PmGH (Persephonella marina, UniProt C0QQ26, C41A/C197A).
T3 construct: gene PERMA_0986; GAF + HD-GYP domains; synthetic gene in pET47b, E. coli BL21(DE3); N-terminal His6 tag cut with HRV 3C; homodimer; tri-iron centre
T3 sequence (C0QQ26 entry or part of it C41A/C197A): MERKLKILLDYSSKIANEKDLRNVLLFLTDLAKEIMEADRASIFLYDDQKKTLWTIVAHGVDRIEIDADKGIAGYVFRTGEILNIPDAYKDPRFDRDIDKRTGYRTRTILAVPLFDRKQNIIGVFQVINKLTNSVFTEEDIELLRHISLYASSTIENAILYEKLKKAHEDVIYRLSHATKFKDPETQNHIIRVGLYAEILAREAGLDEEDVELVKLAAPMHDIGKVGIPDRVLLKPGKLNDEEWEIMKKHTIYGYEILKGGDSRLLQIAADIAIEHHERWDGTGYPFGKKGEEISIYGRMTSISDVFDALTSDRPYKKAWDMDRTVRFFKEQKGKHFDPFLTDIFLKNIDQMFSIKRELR
Kind of experiment: X-ray crystal structure (crystal soak), […] A; hydrolysis in solution shown by HPLC. Type of experiment: binding. As to conditions: crystals soaked with 25 mM c-di-GMP and 100 mM EDTA; only G-site Fe bound; bound to monomer B only, HD-GYP active site.

Experiment [4] deals with GAF/HD-GYP protein from Persephonella marina EX-H1 (PmGH) (Persephonella marina EX-H1) (UniProt C0QQ26). The experiment can be described thus: crystal structure; hanging drop vapour diffusion, 0.1 M MES pH 6.5, 0.9 M succinic acid, 2% PEG 2000; space group I222 with one dimer in the asymmetric unit; native structure at 2.03 Å.
In experiment [5] the target is T3, PmGH. Kind of experiment: X-ray crystal structure (crystal soak), […] A. Type of experiment: binding. As to conditions: crystals soaked with 30 mM GMP; tri-iron centre intact; active site, phosphate bridges M and H iron sites; monomer B only.

T2 sequence (C0QQ26 entry or part of it C41A/E185A/C197A): as the sequence (C0QQ26 entry or part of it C41A/C197A) above, with E185A counted along it
T1 sequence (C0QQ26 entry or part of it C41A/C197A/D305A): as the sequence (C0QQ26 entry or part of it C41A/C197A) above, with D305A counted along it

Turning to `Nc1nc2c(ncn2[C@@H]2O[C@@H]3COP(=O)(O)O[C@H]4[C@@H](O)[C@H](n5cnc6c(=O)[nH]c(N)nc65)O[C@@H]4COP(=O)(O)O[C@H]3[C@H]2O)c(=O)[nH]1` [c-di-GMP], the c-di-GMP hydrolysis entry at PmGH [1] is listed as “marked reduction in their ability to hydrolyse c‐di‐GMP, hydrolysis of c‐di‐GMP is still detected”; at PmGH [2] it was “marked reduction in their ability to hydrolyse c‐di‐GMP, hydrolysis of c‐di‐GMP is still detected”. For the same compound, the “X-ray crystal structure (crystal soak), 2.68 A; hydrolysis in solution shown by” value on PmGH [3] is listed as “revealed well defined difference electron density for a bound c‐di‐GMP molecule at the active site”.

By stoichiometry N is commonly meant a count of units in the complex or per binding partner. “GAF/HD-GYP protein from Persephonella marina EX-H1 (PmGH) (from UniProt C0QQ26 2-363) (enzyme)” returned a stoichiometry N in experiment [4] of 2.

Consider `Nc1nc2c(ncn2[C@@H]2O[C@H](COP(=O)(O)O)[C@@H](O)[C@H]2O)c(=O)[nH]1` [GMP], for which, at PmGH [5], the “X-ray crystal structure (crystal soak), 2.55 A” value is “Crystal soaks with GMP and c‐di‐GMP gave identical structures of PmGH in complex with GMP”.
